Values belong to the molecule of their own block, whether it stands above or below them. Calls of active or inactive are those of the source.
Tests used:
[1] = ADAM10 protease inhibitors, dose response, selectivity assay for ADAM17 exosite inhibitor project, biochemical, FRET peptide substrate, recombinant human ADAM10 (AID 743259);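 also: ADAM10 enzyme cleaving a FRET peptide substrate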
[2] = biological target: Disintegrin and metalloproteinase domain-containing protein 17 (Homo sapiens, UniProt P78536); experiment: exosite inhibitors of ADAM17, dose response, biochemical (AID 743260)
[3] = HEK293T cytotoxicity, dose response, cytotoxicity control for miR-122 modulator project, cell-based, inhibitor set, cherry-pick, set 2 (AID 720697); assay type: functional
[4] = miR-122 activators in hepatoma reporter cells, dose response, cell-based, Huh7 psiCHECK-miR122, Renilla luciferase, cherry-picked (AID 651956); assay type: functional;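 also: huh7 hepatoma cells stably carrying a psiCHECK-2 miR-122 sensor plasmid; renilla luciferase signal reporting endogenous miR-122 activity after 48 h compound exposure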
[5] = biological target: Paired box protein Pax-8 (Homo sapiens, UniProt Q06710); experiment: inhibitors of PAX8-driven TPO luciferase reporter, dose response, RMG-I cells, cherry-pick (AID 687027); assay type: functional, cell-based;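 also: luciferase reporter driven by Pax8 target thyroperoxidase promoter measured by SteadyGlo luminescence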
[6] = P. falciparum Dd2 growth inhibitors, dose response, SYBR Green, cherry-picked samples (AID 1159567); assay type: functional, cell-based
[7] = system: HeLa; experiment: HeLa cell cytotoxicity, dose response, cytotoxicity control, ATP luminescence, cherry-pick samples (AID 687004); assay type: functional, cell-based; settings: Homo sapiens
[8] = A375 melanoma cell cytotoxicity, dose response, counter-screen for MITF inhibitor project, CellTiter-Glo luminescence, dry powder, set 2 (AID 624489); assay type: functional, cell-based; settings: A-375;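 also: actives are compounds lowering A375 viability meaning general cytotoxicity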
[9] = A375 melanoma cell viability loss, dose response, counter-screen for MITF inhibitor project, CellTiter-Glo luminescence, dry powder, set 4 (AID 624364); assay type: functional, cell-based; settings: A-375;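 also: A375 melanoma cells are MITF independent so this is a counter screen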
[10] = biological target: T1, RNA-editing ligase 1, mitochondrial (Trypanosoma brucei brucei, UniProt P86926); experiment: TbREL1 ligase inhibitors, dose response, biochemical, fluorescence, Trypanosoma brucei (AID 1117295); assay type: functional
T1 sequence (P86926 whole entry): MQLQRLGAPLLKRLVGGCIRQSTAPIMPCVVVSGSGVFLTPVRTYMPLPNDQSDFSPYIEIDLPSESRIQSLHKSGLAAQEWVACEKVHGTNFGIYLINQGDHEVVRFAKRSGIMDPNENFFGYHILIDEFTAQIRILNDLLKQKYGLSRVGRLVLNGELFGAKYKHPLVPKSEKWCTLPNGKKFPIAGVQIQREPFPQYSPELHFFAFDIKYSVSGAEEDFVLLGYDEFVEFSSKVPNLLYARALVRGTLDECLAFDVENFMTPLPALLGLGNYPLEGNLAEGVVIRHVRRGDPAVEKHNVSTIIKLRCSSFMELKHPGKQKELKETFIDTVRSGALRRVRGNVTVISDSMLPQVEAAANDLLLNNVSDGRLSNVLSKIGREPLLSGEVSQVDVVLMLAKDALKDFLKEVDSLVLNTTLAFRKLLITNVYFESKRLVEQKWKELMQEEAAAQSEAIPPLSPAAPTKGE

[11] = Glucagon-like peptide 1 release potency, NCI-H716 cell line, dose-response, half-maximal inhibitory concentration (AID 1117344); assay type: functional, cell-based

Sequence of Disintegrin and metalloproteinase domain-containing protein 17 (P78536 whole entry, the tested form may be a part): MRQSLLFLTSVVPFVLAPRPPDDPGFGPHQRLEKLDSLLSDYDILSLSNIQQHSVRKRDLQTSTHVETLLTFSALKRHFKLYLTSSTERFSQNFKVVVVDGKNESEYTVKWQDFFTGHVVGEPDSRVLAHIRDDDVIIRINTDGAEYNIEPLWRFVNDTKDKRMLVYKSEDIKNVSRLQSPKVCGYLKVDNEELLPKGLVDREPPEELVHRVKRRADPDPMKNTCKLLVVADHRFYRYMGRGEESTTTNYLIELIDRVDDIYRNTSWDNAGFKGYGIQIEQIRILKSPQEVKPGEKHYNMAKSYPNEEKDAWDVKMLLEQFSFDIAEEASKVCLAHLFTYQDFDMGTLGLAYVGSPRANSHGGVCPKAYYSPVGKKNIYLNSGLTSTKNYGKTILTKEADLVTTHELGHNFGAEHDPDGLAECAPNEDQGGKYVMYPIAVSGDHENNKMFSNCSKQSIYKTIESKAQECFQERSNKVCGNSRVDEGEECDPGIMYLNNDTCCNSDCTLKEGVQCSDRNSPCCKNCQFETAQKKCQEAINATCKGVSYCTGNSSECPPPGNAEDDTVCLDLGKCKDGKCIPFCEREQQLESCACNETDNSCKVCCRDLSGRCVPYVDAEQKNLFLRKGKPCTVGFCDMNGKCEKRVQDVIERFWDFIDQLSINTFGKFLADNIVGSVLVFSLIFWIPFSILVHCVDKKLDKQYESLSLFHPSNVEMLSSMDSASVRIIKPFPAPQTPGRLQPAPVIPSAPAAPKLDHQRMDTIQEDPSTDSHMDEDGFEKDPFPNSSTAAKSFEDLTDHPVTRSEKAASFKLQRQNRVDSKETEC
Sequence of Paired box protein Pax-8 (Q06710 whole entry): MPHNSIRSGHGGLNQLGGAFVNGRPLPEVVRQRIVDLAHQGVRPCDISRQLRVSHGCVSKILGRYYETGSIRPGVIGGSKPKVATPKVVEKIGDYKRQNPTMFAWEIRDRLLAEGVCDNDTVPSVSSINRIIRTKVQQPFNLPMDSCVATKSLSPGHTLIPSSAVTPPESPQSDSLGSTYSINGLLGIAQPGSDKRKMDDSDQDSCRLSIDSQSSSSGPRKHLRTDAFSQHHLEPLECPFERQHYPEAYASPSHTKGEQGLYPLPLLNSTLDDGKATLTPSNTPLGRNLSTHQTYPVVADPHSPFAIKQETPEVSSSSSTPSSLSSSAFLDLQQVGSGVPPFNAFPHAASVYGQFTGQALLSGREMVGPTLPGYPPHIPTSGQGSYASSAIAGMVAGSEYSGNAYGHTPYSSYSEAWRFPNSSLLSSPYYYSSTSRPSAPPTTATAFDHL

IC50 [2]: > 69.6 µM (inactive)
Structure (SMILES): CCc1noc(C)c1C(=O)OC(C)C(=O)Nc1ccc2c(c1)OCO2 (stereo not drawn)
IC50 [1]: > 69.6 µM (inactive)

Structure (SMILES): C[C@H](CO)N1C[C@H](C)[C@@H](CN(C)Cc2ccc(-c3ccccc3)cc2)Oc2ccc(NC(=O)Cc3ccccc3)cc2CC1=O
AC50 [3]: 28.7 µM (active) | AC50 [4]: 21.3 µM (active) | AC50 [5]: 9.36 µM (active)

Structure (SMILES): C[C@@H]1CN([C@@H](C)CO)C(=O)c2cc(NC(=O)Nc3ccccc3)ccc2O[C@@H]1CN(C)C(=O)Nc1cccc2ccccc12
AC50 [6]: 8.14 µM (active) | AC50 [7]: > 52 µM (inactive)

Structure (SMILES): CCN(CC)CCNC1=C(Nc2ccccc2)C(=O)c2ccccc2C1=O
AC50 [8]: > 70 µM (inactive) | AC50 [9]: > 70 µM (inactive)

Structure (SMILES): CN1C(=O)c2cc(NC(=O)Cc3ccccc3)ccc2OC[C@H]2O[C@@H](CC(=O)NC3CCC3)CC[C@@H]21
AC50 [3]: 9.59 µM (active)

Structure (SMILES): Cc1ccc(C(=O)NC2=C(c3ccccc3)C(=O)c3ccccc3C2=O)o1
AC50 [8]: 19.1 µM (active) | AC50 [9]: 21.8 µM (active)

IC50 [10]: > 96.6 µM (inactive)
Structure (SMILES): COC(=O)C1=C(C)N(Cc2cccc(C(F)(F)F)c2)C(NCc2ccc(OC)cc2)=NC1c1ccccc1C(F)(F)F (stereo not drawn)

Structure (SMILES): COc1ccc(C2=C(NC(=O)c3cccc(OC)c3)C(=O)c3ccccc3C2=O)cc1
AC50 [8]: 13.6 µM (active) | AC50 [9]: 29.5 µM (active)

Structure (SMILES): COc1ccc(C2=C(NC(=O)c3ccccc3Cl)C(=O)c3ccccc3C2=O)cc1
AC50 [8]: 11.8 µM (active) | AC50 [9]: 17.5 µM (active)

Structure (SMILES): CCN(CC)CCOc1ccc(/C(=C(\Cl)c2ccccc2)c2ccccc2)cc1 [CLOMIPHENE]
IC50 [11]: > 40 µM (inactive)

— ChEMBL document CHEMBL1201862, “PubChem BioAssay data set” (2004)
